Source: patent publication US20250296916A1, “BICYCLIC PIPERAZINONES AND THERAPEUTIC USES THEREOF” (Cytokinetics, Inc., priority 2022, published 2025)

tested on: rabbit skeletal myofibrils (approximately 90% fast fibers); experiment: Activation of fast skeletal myofibrils (PUMA coupled-enzyme ATPase assay); format: biochemical; settings: concentration at which the compound increased the enzymatic activity by 40%; calcium at pCa25; PM12 buffer pH 6.8
Method: Preparation of fast skeletal myofibrils: Rabbit skeletal myofibrils were prepared based upon the method of Herrmann et al. (Biochem. 32 (28): 7255-7263 (1993). Myofibrils were prepared from rabbit psoas muscle purchased from Pel-Freez Biologicals (Arkansas) within 2 days of ordering, stored on ice. Minced muscle was homogenized in 10 volumes of ice-cold “standard” buffer (50 mM Tris, pH 7.4, 0.1 M KOAc, 5 mM KCl, 2 mM dithiothreitol (DTT), 0.2 mM phenylmethylsulfonyl fluoride (PMSF), 10 μM leupeptin, 5 μM pepstatin, and 0.5 mM sodium azide) containing 5 mM ethylenediaminetetraacetic acid (EDTA) and 0.5% Triton X-100 using an Omni-Macro homogenizer. Myofibrils were recovered by low speed centrifugation (3000 rpm for 10 minutes) and washed 2 times in the Triton X-100 containing buffer to ensure removal of cellular membrane. Following the Triton washes, myofibrils were washed 3 times in “standard” buffer containing 2 mM magnesium acetate. A final wash in assay buffer (12 mM piperazine-1,4-bis(2-ethanesulfonic acid) (PIPES), pH 6.8, 60 mM KCl, 1 mM DTT) was performed and brought to 10% sucrose for flash freezing in liquid nitrogen and storage at −80° C.
Activation of Fast Skeletal Myofibrils: Fast fiber activators were identified by measuring the enzymatic activity of muscle myofibril preparations using the proprietary PUMA (trademark) (see, e.g., U.S. Pat. Nos. 6,410,254, 6,743,599, 7,202,051, and 7,378,254) assay system. Myofibril preparations consisted of rabbit skeletal muscle (approximately 90% fast fibers) that had been mechanically homogenized and washed with a detergent (Triton X-100) to remove cellular membranes. This preparation retained all of the sarcomeric components in a native conformation and the enzymatic activity was still regulated by calcium. Compounds were tested using a myofibril suspension and a level of calcium sufficient to increase enzymatic activity of the myofibrils to 25% of their maximal rate (termed pCa25). Enzymatic activity was tracked via a pyruvate kinase and lactate dehydrogenase-coupled enzyme system. This assay regenerates myosin-produced ADP into ATP by oxidizing NADH, producing an absorbance change at 340 nm. The buffering system was 12 mM PIPES, 2 mM MgCl2, 1 mM DTT at pH 6.8 (PM12 buffer). […] In Table 3, “Example Compound” refers to the compound labeled with the same number in Table 2.

Row | AC1.4 [µM] | Structure (SMILES)
1 | 0.16 | CC[C@H](C)[C@H]1C(=O)Nc2ccccc2N1C(=O)c1cnn(CCO)c1 [Compound 78, (S)-3-((S)-sec-butyl)-4-(1-(2-hydroxyethyl)-1H-pyrazole-4-carbonyl)-3,4-dihydroquinoxalin-2(1H)-one]
2 | 0.71 | CC[C@H](C)[C@H]1C(=O)Nc2cnccc2N1C(=O)c1ccc(=O)[nH]c1 [Compound 90, (S)-2-((S)-sec-butyl)-1-(6-oxo-1,6-dihydropyridine-3-carbonyl)-1,4-dihydropyrido[3,4-b]pyrazin-3(2H)-one]
3 | 2.77 | CC[C@H](C)[C@H]1C(=O)Nc2ccccc2N1C(=O)N1CC[C@@H](CO)C1 [Compound 108, (S)-3-((S)-sec-butyl)-4-((R)-3-(hydroxymethyl)pyrrolidine-1-carbonyl)-3,4-dihydroquinoxalin-2(1H)-one]
4 | 1.18 | CC[C@H](C)[C@H]1C(=O)Nc2ccccc2N1C(=O)CCO [Compound 110, (S)-3-((S)-sec-butyl)-4-(3-hydroxypropanoyl)-3,4-dihydroquinoxalin-2(1H)-one]
5 | 0.04 | CC[C@H](C)[C@H]1C(=O)Nc2ccccc2N1C(=O)c1cnn(C)c1 [Compound 63, (S)-3-((S)-sec-butyl)-4-(1-methyl-1H-pyrazole-4-carbonyl)-3,4-dihydroquinoxalin-2(1H)-one]
6 | 1.58 | CC[C@H](C)[C@H]1C(=O)Nc2c(F)cccc2N1C(N)=O [Compound 100, (S)-2-((S)-sec-Butyl)-5-fluoro-3-oxo-3,4-dihydroquinoxaline-1(2H)-carboxamide]
7 | 0.2 | CC(C)[C@H]1C(=O)Nc2ccccc2N1C(=O)c1cn[nH]c1 [Compound 86, (S)-3-isopropyl-4-(1H-pyrazole-4-carbonyl)-3,4-dihydroquinoxalin-2(1H)-one]
8 | 2.23 | CC[C@H](C)[C@H]1C(=O)Nc2ccccc2N1C(=O)NCCO [Compound 105, (S)-2-((S)-sec-butyl)-N-(2-hydroxyethyl)-3-oxo-3,4-dihydroquinoxaline-1(2H)-carboxamide]
9 | 0.24 | CCC[C@H]1C(=O)Nc2ccc(Cl)cc2N1C(=O)c1cnn(C)c1 [Compound 64, (S)-6-Chloro-4-(1-methyl-1H-pyrazole-4-carbonyl)-3-propyl-3,4-dihydroquinoxalin-2(1H)-one]
10 | 1.24 | CC[C@H](C)[C@H]1C(=O)Nc2ccccc2N1C(=O)N1CC(F)(F)C1 [Compound 117, (S)-3-((S)-sec-butyl)-4-(3,3-difluoroazetidine-1-carbonyl)-3,4-dihydroquinoxalin-2(1H)-one]
11 | 1.77 | CC[C@H](C)[C@H]1C(=O)Nc2ccccc2N1C(=O)N1CC[C@H](O)C1 [Compound 106, (S)-3-((S)-sec-butyl)-4-((S)-3-hydroxypyrrolidine-1-carbonyl)-3,4-dihydroquinoxalin-2(1H)-one]
12 | 0.87 | CC[C@H](C)[C@H]1C(=O)Nc2ccccc2N1C(N)=O [Compound 99, (S)-2-((S)-sec-butyl)-3-oxo-3,4-dihydroquinoxaline-1(2H)-carboxamide]
13 | 0.84 | CC[C@H](C)[C@H]1C(=O)Nc2ncccc2N1C(=O)c1cnn(C)c1 [Compound 95, (S)-2-((S)-sec-butyl)-1-(1-methyl-1H-pyrazole-4-carbonyl)-1,4-dihydropyrido[2,3-b]pyrazin-3(2H)-one]
14 | 0.83 | CC[C@H](C)[C@H]1C(=O)Nc2ccccc2N1C(=O)N1CCC[C@H](CO)C1 [Compound 116, (S)-3-((S)-sec-butyl)-4-((S)-3-(hydroxymethyl)piperidine-1-carbonyl)-3,4-dihydroquinoxalin-2(1H)-one]
15 | 0.6 | CC(C)C[C@H]1C(=O)Nc2cnccc2N1C(=O)c1cnn(C)c1 [Compound 96, (S)-2-isobutyl-1-(1-methyl-1H-pyrazole-4-carbonyl)-1,4-dihydropyrido[3,4-b]pyrazin-3(2H)-one]
16 | 0.06 | CC(C)[C@H]1C(=O)Nc2ccccc2N1C(=O)c1cnc2[nH]ncc2c1 [Compound 83, (S)-3-isopropyl-4-(1H-pyrazolo[3,4-b]pyridine-5-carbonyl)-3,4-dihydroquinoxalin-2(1H)-one]

The remaining lines, values behind:

Row | Structure (SMILES) | AC1.4 [µM]
17 | CCC[C@H]1C(=O)Nc2ccccc2N1C(=O)Nc1cccc(C)c1 [Compound 61, (S)-3-oxo-2-propyl-N-(m-tolyl)-3,4-dihydroquinoxaline-1(2H)-carboxamide] | 0.43
18 | CCC[C@H]1C(=O)Nc2ccccc2N1C(=O)NC1CCCCC1 [Compound 46, (S)-N-cyclohexyl-3-oxo-2-propyl-3,4-dihydroquinoxaline-1(2H)-carboxamide] | 0.47
19 | CCC[C@H]1C(=O)Nc2ccccc2N1C(=O)Nc1cccc(OC)c1 [Compound 54, (S)-N-(3-methoxyphenyl)-3-oxo-2-propyl-3,4-dihydroquinoxaline-1(2H)-carboxamide] | 0.31
20 | CCC[C@H]1C(=O)Nc2cccc(C3CC3)c2N1C(=O)c1ccc(C)nc1 [Compound 7, (S)-5-Cyclopropyl-4-(6-methylnicotinoyl)-3-propyl-3,4-dihydroquinoxalin-2(1H)-one] | 0.96
21 | CCC[C@H]1C(=O)Nc2ccccc2N1C(=O)c1ccc(N2CCCCC2)nc1 [Compound 29, (S)-4-(6-(piperidin-1-yl)nicotinoyl)-3-propyl-3,4-dihydroquinoxalin-2(1H)-one] | 2.7
22 | CCC[C@H]1C(=O)Nc2ccccc2N1C(=O)c1ccc(F)c(F)c1 [Compound 21, (S)-4-(3,4-difluorobenzoyl)-3-propyl-3,4-dihydroquinoxalin-2(1H)-one] | 0.07
23 | CCC[C@H]1C(=O)Nc2cccc(Br)c2N1C(=O)c1ccc(Cl)nc1 [Compound 4, (S)-5-bromo-4-(6-chloronicotinoyl)-3-propyl-3,4-dihydroquinoxalin-2(1H)-one] | 0.72
24 | CCC[C@H]1C(=O)Nc2ccccc2N1C(=O)c1ccc(-n2cccc2)nc1 [Compound 23, (S)-4-(6-(1H-pyrrol-1-yl)nicotinoyl)-3-propyl-3,4-dihydroquinoxalin-2(1H)-one] | 1.33
25 | CCC[C@H]1C(=O)Nc2ccccc2N1C(=O)c1cnn(CC2CC2)c1 [Compound 31, (S)-4-(1-(cyclopropylmethyl)-1H-pyrazole-4-carbonyl)-3-propyl-3,4-dihydroquinoxalin-2(1H)-one] | 0.41
26 | CCC[C@H]1C(=O)Nc2ccccc2N1C(=O)N1CCc2ccccc21 [Compound 52, (S)-4-(indoline-1-carbonyl)-3-propyl-3,4-dihydroquinoxalin-2(1H)-one] | 0.58
27 | CCC[C@H]1C(=O)Nc2ccccc2N1C(=O)c1ccc(N(C)Cc2ccccc2)nc1 [Compound 39, (S)-4-(6-(benzyl(methyl)amino)nicotinoyl)-3-propyl-3,4-dihydroquinoxalin-2(1H)-one] | 0.27
28 | CCC[C@H]1C(=O)Nc2ccccc2N1C(=O)Nc1ccc(F)cc1 [Compound 58, (S)-N-(4-fluorophenyl)-3-oxo-2-propyl-3,4-dihydroquinoxaline-1(2H)-carboxamide] | 0.26
29 | CCC[C@H]1C(=O)Nc2ccccc2N1C(=O)Nc1cnn(C)c1 [Compound 59, (S)-N-(1-methyl-1H-pyrazol-4-yl)-3-oxo-2-propyl-3,4-dihydroquinoxaline-1(2H)-carboxamide] | 1.96
30 | CCC[C@H]1C(=O)Nc2ccccc2N1C(=O)c1cncc(C)c1 [Compound 16, (S)-4-(5-methylnicotinoyl)-3-propyl-3,4-dihydroquinoxalin-2(1H)-one] | 1.41
31 | CCC[C@H]1C(=O)Nc2ccccc2N1C(=O)Nc1ccc(C)cc1 [Compound 62, (S)-3-oxo-2-propyl-N-(p-tolyl)-3,4-dihydroquinoxaline-1(2H)-carboxamide] | 1.39
32 | CCC[C@H]1C(=O)Nc2ccccc2N1C(=O)c1cnn(CC)c1 [Compound 30, (S)-4-(1-ethyl-1H-pyrazole-4-carbonyl)-3-propyl-3,4-dihydroquinoxalin-2(1H)-one] | 0.42
33 | CCC[C@H]1C(=O)Nc2ccccc2N1C(=O)Nc1ccc(C)nc1 [Compound 8, (S)-N-(6-methylpyridin-3-yl)-3-oxo-2-propyl-3,4-dihydroquinoxaline-1(2H)-carboxamide] | 2.73
34 | CCC[C@H]1C(=O)Nc2ccccc2N1C(=O)c1ccccc1 [Compound 10, (S)-4-benzoyl-3-propyl-3,4-dihydroquinoxalin-2(1H)-one] | 0.33
35 | CCC[C@H]1C(=O)Nc2ccccc2N1C(=O)c1ccc(N2CC(F)(F)C2)nc1 [Compound 42, (S)-4-(6-(3,3-difluoroazetidin-1-yl)nicotinoyl)-3-propyl-3,4-dihydroquinoxalin-2(1H)-one] | 2.34
